Results as given in patent US8835440B2, “Cyclic pyrimidin-4-carboxamides as CCR2 receptor antagonists for treatment of inflammation, asthma and COPD” (Boehringer Ingelheim International GmbH, priority 2008, dated 2014).
pKi: −log10 of the molar value.

Molecular target: T1, CCR2 (Homo sapiens, UniProt P41597)
T1 construct: Membranes were prepared from THP-1 cells; endogenous in cells; host or cells: THP-1 cells (membrane preparation)
T1 sequence (P41597 1-360 isoform P41597-2): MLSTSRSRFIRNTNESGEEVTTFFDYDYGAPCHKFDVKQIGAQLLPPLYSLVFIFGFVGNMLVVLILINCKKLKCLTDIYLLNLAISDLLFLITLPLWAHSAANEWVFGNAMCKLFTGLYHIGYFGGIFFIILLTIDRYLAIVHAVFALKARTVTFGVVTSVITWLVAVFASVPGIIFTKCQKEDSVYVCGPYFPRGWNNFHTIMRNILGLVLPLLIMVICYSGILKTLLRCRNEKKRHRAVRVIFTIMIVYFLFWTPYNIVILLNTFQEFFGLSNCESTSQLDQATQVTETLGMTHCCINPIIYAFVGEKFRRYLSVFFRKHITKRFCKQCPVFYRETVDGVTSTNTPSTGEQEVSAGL
Assay: CCR2 receptor membrane binding assay ([125I]MCP-1, THP-1 cell membranes, SPA beads)
Conditions: for remaining activity at 10 µM / CCR2 % ctrl @ 10 μM: @ 10 μM test compound, THP-1 membranes; for remaining activity at 10 µM: read-out: CCR2 % ctrl @ 10 μM; for pKi: dissociation constant hKi, [125I]MCP-1 binding to THP-1 membranes
Method in brief: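 hKi was derived by iterative law-of-mass-action fitting of scintillation counts read at 8 h. Compound (1% DMSO final) competed with ca. 25000 cpm [125I]MCP-1 for THP-1 membranes bound to WGA-PVT beads. Buffer: 25 mM HEPES pH 7.2, 5 mM MgCl2, 0.5 mM CaCl2, 0.2% BSA.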

| Structure (SMILES) | remaining activity at 10 µM | pKi | CCR2 % ctrl @ 10 μM |
| --- | --- | --- | --- |
| Cc1c(NCC2CCN(c3ccccc3)CC2)ncnc1C(=O)N1CCC(N2CCC(O)CC2)CC1 [Example 113] | 46% | 5.48 |  |
| Cc1c(NCCc2ccc(F)c(F)c2)ncnc1C(=O)N1CCC(N2CCC(O)CC2)CC1 [Example 115] | 33% | 6.07 |  |
| Cc1cc(CNc2ncnc(C(=O)N3CCC(N4CCC(O)CC4)CC3)c2C)ccc1F [Example 118] | 41% | 5.67 |  |
| COc1ccc(CCNc2ncnc(C(=O)N3CCC(N4CCC(O)CC4)CC3)c2C)cc1Cl [Example 119] |  | 5.99 | 37 % ctrl |
| Cc1ccc(CNc2ncnc(C(=O)N3CCC(N4CCC(O)CC4)CC3)c2C)cc1F [Example 120] | 30% | 6.30 |  |
| Cc1c(NCc2cccc(Cl)c2)ncnc1C(=O)N1CCC(N2CCC(O)CC2)CC1 [Example 123] | 26% | 6.27 |  |
| Cc1c(NCc2ccc(Cl)c(C(F)(F)F)c2)ncnc1C(=O)N1CCC(N2CCC(O)CC2)CC1 [Example 125] | 25% | 6.35 |  |
| Cc1c(NCc2ccc(Cl)cc2)ncnc1C(=O)N1CCC(N2CCCCC2)CC1 [Example 127] | 35% | 6.18 |  |
| Cc1c(NCc2ccc(F)c(Cl)c2)ncnc1C(=O)N1CCC(N2CCCCC2)CC1 [Example 128] | 26% | 6.35 |  |
| Cc1c(NCC2CCN(c3ccccc3)CC2)ncnc1C(=O)N1CCC(N2CCCCC2)CC1 [Example 130] | 50% | 5.37 |  |
| Cc1c(NCCc2ccc(F)c(F)c2)ncnc1C(=O)N1CCC(N2CCCCC2)CC1 [Example 132] | 31% | 6.17 |  |
| Cc1cc(CNc2ncnc(C(=O)N3CCC(N4CCCCC4)CC3)c2C)ccc1F [Example 135] | 19% | 6.05 |  |
| COc1ccc(CCNc2ncnc(C(=O)N3CCC(N4CCCCC4)CC3)c2C)cc1Cl [Example 136] | 14% | 6.11 |  |
| Cc1ccc(CNc2ncnc(C(=O)N3CCC(N4CCCCC4)CC3)c2C)cc1F [Example 137] |  | 6.20 | 14 % ctrl |
| Cc1c(NCCc2cccc(Cl)c2)ncnc1C(=O)N1CCC(N2CCCCC2)CC1 [Example 139] | 9% | 6.35 |  |
| Cc1c(NCc2cccc(Cl)c2)ncnc1C(=O)N1CCC(N2CCCCC2)CC1 [Example 140] | 16% | 6.16 |  |
| Cc1c(NCc2ccc(Cl)c(C(F)(F)F)c2)ncnc1C(=O)N1CCC(N2CCCCC2)CC1 [Example 142] | 8% | 6.28 |  |
| Cc1ccc(CCNc2ncnc(C(=O)N3CCC(N4CCCCC4)CC3)c2C)cc1C [Example 143] | 8% | 6.37 |  |
| Cc1c(NCC2CCCN(c3ccc(C#N)c(Cl)c3)C2)ncnc1C(=O)N1CCC(N2CCC(N(C)S(C)(=O)=O)CC2)CC1 (stereo not drawn) [Example 154] | 15% | 6.91 |  |
| Cc1c(NCc2cnc3ccccc3c2)ncnc1C(=O)N1CCC(N2CCC(N(C)S(C)(=O)=O)CC2)CC1 [Example 157] | 23% | 5.94 |  |
| Cc1c(NCC2CCOCC2)ncnc1C(=O)N1CCC(N2CCC(N(C)S(C)(=O)=O)CC2)CC1 [Example 159ac] |  | 5.23 |  |
| Cc1c(NCC2CCCOC2)ncnc1C(=O)N1CCC(N2CCC(N(C)S(C)(=O)=O)CC2)CC1 (stereo not drawn) [Example 159bc] |  | 5.46 |  |

More lines, now with the values ahead:

| remaining activity at 10 µM | pKi | CCR2 % ctrl @ 10 μM | Structure (SMILES) |
| --- | --- | --- | --- |
| 8% | 7.21 |  | Cc1c(NCC2CCCC(c3ccccc3)C2)ncnc1C(=O)N1CCC(N2CCC(O)CC2)CC1 (stereo not drawn) [Example 114] |
| 16% | 6.70 |  | Cc1c(NCc2ccc(C(F)(F)F)c(Cl)c2)ncnc1C(=O)N1CCC(N2CCC(O)CC2)CC1 [Example 116] |
| 19% | 6.55 |  | Cc1c(NCc2ccc(Cl)c(F)c2)ncnc1C(=O)N1CCC(N2CCC(O)CC2)CC1 [Example 117] |
| 15% | 6.83 |  | Cc1c(NCC2CCC(c3ccccc3)CC2)ncnc1C(=O)N1CCC(N2CCC(O)CC2)CC1 (stereo not drawn) [Example 121] |
| 23% | 6.38 |  | Cc1c(NCCc2cccc(Cl)c2)ncnc1C(=O)N1CCC(N2CCC(O)CC2)CC1 [Example 122] |
| 20% | 6.44 |  | Cc1c(NCCc2ccc(Cl)cc2)ncnc1C(=O)N1CCC(N2CCC(O)CC2)CC1 [Example 124] |
| 23% | 6.40 |  | Cc1ccc(CCNc2ncnc(C(=O)N3CCC(N4CCC(O)CC4)CC3)c2C)cc1C [Example 126] |
| 21% | 6.47 |  | Cc1c(NCCc2ccc(C(C)(C)C)cc2)ncnc1C(=O)N1CCC(N2CCCCC2)CC1 [Example 129] |
| 6% | 7.26 |  | Cc1c(NCC2CCCC(c3ccccc3)C2)ncnc1C(=O)N1CCC(N2CCCCC2)CC1 (stereo not drawn) [Example 131] |
| 15% | 6.69 |  | Cc1c(NCc2ccc(C(F)(F)F)c(Cl)c2)ncnc1C(=O)N1CCC(N2CCCCC2)CC1 [Example 133] |
| 23% | 6.40 |  | Cc1c(NCc2ccc(Cl)c(F)c2)ncnc1C(=O)N1CCC(N2CCCCC2)CC1 [Example 134] |
| 6% | 6.84 |  | Cc1c(NCC2CCC(c3ccccc3)CC2)ncnc1C(=O)N1CCC(N2CCCCC2)CC1 (stereo not drawn) [Example 138] |
| 7% | 6.37 |  | Cc1c(NCCc2ccc(Cl)cc2)ncnc1C(=O)N1CCC(N2CCCCC2)CC1 [Example 141] |
| 7% | 7.04 |  | Cc1c(NC[C@@H]2CCC[C@@H](c3ccccc3)C2)ncnc1C(=O)N1CCC(N2CCC(O)CC2)CC1 [Example 144] |
| 17% | 6.74 |  | Cc1c(NC[C@@H]2CCC[C@H](c3ccccc3)C2)ncnc1C(=O)N1CCC(N2CCC(O)CC2)CC1 [Example 145] |
| 7% | 8.52 |  | Cc1c(NC[C@H]2CCC[C@@H](c3ccccc3)C2)ncnc1C(=O)N1CCC(N2CCC(N(C)S(C)(=O)=O)CC2)CC1 [Example 146] |
| 8% | 7.40 |  | CCS(=O)(=O)N(C)C1CCN(C2CCN(C(=O)c3ncnc(NC[C@@H]4C[C@H]4c4ccccc4)c3C)CC2)CC1 [Example 147] |

| remaining activity at 10 µM | pKi | CCR2 % ctrl @ 10 μM | Structure (SMILES) |
| --- | --- | --- | --- |
| 4% | 6.92 |  | Cc1c(NCC2CCCc3ccccc32)ncnc1C(=O)N1CCC(N2CCC(N(C)S(C)(=O)=O)CC2)CC1 (stereo not drawn) [Example 148] |
| 10% | 7.39 |  | Cc1c(NC[C@@H]2CCN(c3ccccc3)C2)ncnc1C(=O)N1CCC(N2CCC(N(C)S(C)(=O)=O)CC2)CC1 [Example 149] |
| 3% | 7.92 |  | Cc1c(NC[C@H]2CCC[C@H](c3ccccc3)C2)ncnc1C(=O)N1CCC(N2CCC(N(C)S(C)(=O)=O)CC2)CC1 [Example 150] |
| 7% | 7.85 |  | Cc1c(NC[C@@H]2CCC[C@H](c3ccccc3)C2)ncnc1C(=O)N1CCC(N2CCC(N(C)S(C)(=O)=O)CC2)CC1 [Example 151] |
| 7% | 7.36 |  | Cc1c(NC[C@@H]2C[C@H]2c2ccccc2)ncnc1C(=O)N1CCC(N2CCC(N(C)S(C)(=O)=O)CC2)CC1 [Example 152] |
| 1% | 7.57 |  | Cc1c(NCCc2ccc(C(C)(C)C)cc2)ncnc1C(=O)N1CCC(N2CCC(N(C)S(C)(=O)=O)CC2)CC1 [Example 153] |
| 8% | 7.12 |  | Cc1c(NCC2CCCN(c3ccccc3)C2)ncnc1C(=O)N1CCC(N2CCC(N(C)S(C)(=O)=O)CC2)CC1 (stereo not drawn) [Example 155] |
| 8% | 7.74 |  | Cc1c(NC[C@H]2CCN(c3ccccc3)C2)ncnc1C(=O)N1CCC(N2CCC(N(C)S(C)(=O)=O)CC2)CC1 [Example 156] |
| 0% | 8.22 |  | Cc1c(NC[C@@H]2CCC[C@@H](c3ccccc3)C2)ncnc1C(=O)N1CCC(N2CCC(N(C)S(C)(=O)=O)CC2)CC1 [Example 158] |
| 4% | 7.60 |  | Cc1nc(NC[C@H]2CCN(c3ccccc3)C2)c(C)c(C(=O)N2CCC(N3CCC(N(C)S(C)(=O)=O)CC3)CC2)n1 [Example 159] |
|  | 8.00 |  | COc1nc(NCC2CCCC(c3ccccc3)C2)c(C)c(C(=O)N2CCC(N3CCC(N(C)S(C)(=O)=O)CC3)CC2)n1 (stereo not drawn) [Example 159a] |
|  | 7.74 |  | CNC(=O)C1CCN(C2CCN(C(=O)c3ncnc(NCC4CCCC(c5ccc(F)cc5)C4)c3C)CC2)CC1 (stereo not drawn) [Example 159aa] |
|  | 7.57 |  | Cc1c(NCC2CCC(c3ccc(Cl)cc3)O2)ncnc1C(=O)N1CCC(N2CCC(N(C)S(C)(=O)=O)CC2)CC1 (stereo not drawn) [Example 159ab] |
|  | 8.15 |  | COc1nc(NCc2ccc(C(C)(C)C)cc2)c(C)c(C(=O)N2CCC(N3CCC(N(C)S(C)(=O)=O)CC3)CC2)n1 [Example 159b] |
|  | 7.96 |  | Cc1c(NCC2CCCC(c3ccc(F)cc3)C2)ncnc1C(=O)N1CCC(N2CCC(NS(C)(=O)=O)CC2)CC1 (stereo not drawn) [Example 159ba] |
|  | 7.32 |  | Cc1c(NCC2CCC(C)C2)ncnc1C(=O)N1CCC(N2CCC(N(C)S(C)(=O)=O)CC2)CC1 (stereo not drawn) [Example 159bb] |
